Results published in PubChem BioAssay AID248 (DTP/NCI, 2004).
“And” between values parts separate entries of the source, which are not always exact repeats. Equal entries are not always repeated. Inconclusive results and toxic doses are left out.

Test system: L1210 leukemia ip in BDF1 mice, survival T/C
Test: NCI In Vivo Anticancer Drug Screen. Data for tumor model L1210 Leukemia (intraperitoneal) in B6D2F1 (BDF1) mice
Details: endpoint: mean survival time, higher = longer survival
Outline: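 In this screen, tumor-bearing mice given compound are compared to those given vehicle, and their survival values are reported as a treated-to-control quotient.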

[1] = dose: 50.0 mg/kg/injection, schedule: Q01DX001 (ip), vehicle: carboxymethylcellulose (CMC)
[2] = dose: 100.0 mg/kg/injection, schedule: Q01DX001 (ip), vehicle: carboxymethylcellulose (CMC)
[3] = dose: 100.0 mg/kg/injection, schedule: Q04DX003 (ip), vehicle: saline with Tween-80
[4] = dose: 200.0 mg/kg/injection, schedule: Q04DX003 (ip), vehicle: saline with Tween-80
[5] = dose: 400.0 mg/kg/injection, schedule: Q04DX003 (ip), vehicle: saline with Tween-80
[6] = dose: 25.0 mg/kg/injection, schedule: Q01DX009 (ip), vehicle: saline
[7] = dose: 25.0 mg/kg/injection, schedule: Q04DX003 (ip), vehicle: saline
[8] = dose: 50.0 mg/kg/injection, schedule: Q01DX009 (ip), vehicle: saline
[9] = dose: 50.0 mg/kg/injection, schedule: Q04DX003 (ip), vehicle: saline
[10] = dose: 100.0 mg/kg/injection, schedule: Q01DX009 (ip), vehicle: saline
[11] = dose: 100.0 mg/kg/injection, schedule: Q04DX003 (ip), vehicle: saline
[12] = dose: 200.0 mg/kg/injection, schedule: Q04DX003 (ip), vehicle: saline
[13] = dose: 400.0 mg/kg/injection, schedule: Q04DX003 (ip), vehicle: saline
[14] = dose: 100.0 mg/kg/injection, schedule: Q01DX009 (ip), vehicle: saline with Tween-80
[15] = dose: 200.0 mg/kg/injection, schedule: Q01DX009 (ip), vehicle: saline with Tween-80
[16] = dose: 100.0 mg/kg/injection, schedule: Q01DX001 (ip), vehicle: saline
[17] = dose: 200.0 mg/kg/injection, schedule: Q01DX001 (ip), vehicle: saline
[18] = dose: 400.0 mg/kg/injection, schedule: Q01DX001 (ip), vehicle: saline

Cc1nc(N)[nH]c(=O)c1CCCNc1ccc(CCCCC2(CCl)OCCO2)cc1
T/C (dose: 50.0 mg/kg/injection, schedule: Q01DX Z (ip), vehicle: carboxymethylcellulose (CMC)): 98 % of control | T/C (dose: 100.0 mg/kg/injection, schedule: Q01DX Z (ip), vehicle: carboxymethylcellulose (CMC)): 101 % of control | T/C (dose: 200.0 mg/kg/injection, schedule: Q01DX Z (ip), vehicle: carboxymethylcellulose (CMC)): 95 % of control | T/C (dose: 400.0 mg/kg/injection, schedule: Q01DX Z (ip), vehicle: carboxymethylcellulose (CMC)): 101 % of control

CNC(=O)O[C@H]1CC[C@@]2(C)C(=CC[C@H]3[C@@H]4CC[C@H]([C@H](C)CCCC(C)C)[C@@]4(C)CC[C@@H]32)C1
T/C (dose: 100.0 mg/kg/injection, schedule: Q01DX001 (sc), vehicle: steriod suspending solution): 87 % of control | T/C (dose: 200.0 mg/kg/injection, schedule: Q01DX001 (sc), vehicle: steriod suspending solution): 97 % of control | T/C (dose: 400.0 mg/kg/injection, schedule: Q01DX001 (sc), vehicle: steriod suspending solution): 92 % of control

O=C(COc1ccc(Cl)cc1Cl)OC(=O)COc1ccc(Cl)cc1Cl
T/C (dose: 12.5 mg/kg/injection, schedule: Q01DX009 (ip), vehicle: carboxymethylcellulose (CMC)): 100 % of control and 106 % of control | T/C (dose: 25.0 mg/kg/injection, schedule: Q01DX009 (ip), vehicle: carboxymethylcellulose (CMC)): 102 % of control and 103 % of control | T/C [1]: 92 % of control | T/C (dose: 50.0 mg/kg/injection, schedule: Q04DX003 (ip), vehicle: carboxymethylcellulose (CMC)): 92 % of control | T/C [2]: 97 % of control | T/C (dose: 100.0 mg/kg/injection, schedule: Q01DX009 (ip), vehicle: carboxymethylcellulose (CMC)): 94 % of control | T/C (dose: 100.0 mg/kg/injection, schedule: Q04DX002 (ip), vehicle: Klucel (hydroxypropylcellulose) (HPC)): 95 % of control | T/C (dose: 100.0 mg/kg/injection, schedule: Q04DX002 (ip), vehicle: carboxymethylcellulose (CMC)): 97 % of control and 100 % of control | T/C (dose: 100.0 mg/kg/injection, schedule: Q04DX003 (ip), vehicle: carboxymethylcellulose (CMC)): 94 % of control | T/C (dose: 200.0 mg/kg/injection, schedule: Q01DX001 (ip), vehicle: carboxymethylcellulose (CMC)): 89 % of control | T/C (dose: 200.0 mg/kg/injection, schedule: Q04DX002 (ip), vehicle: Klucel (hydroxypropylcellulose) (HPC)): 95 % of control | T/C (dose: 200.0 mg/kg/injection, schedule: Q04DX002 (ip), vehicle: carboxymethylcellulose (CMC)): 97 % of control and 98 % of control | T/C (dose: 400.0 mg/kg/injection, schedule: Q04DX002 (ip), vehicle: Klucel (hydroxypropylcellulose) (HPC)): 98 % of control

CCOC(=O)C(C(C)=O)C(c1ccccc1)C(C(C)=O)C(=O)OCC (stereo not given)
T/C (dose: 25.6 mg/kg/injection, schedule: Q04DX002 (ip), vehicle: saline with Tween-80): 97 % of control | T/C (dose: 64.0 mg/kg/injection, schedule: Q04DX002 (ip), vehicle: saline with Tween-80): 104 % of control | T/C [3]: 101 % of control | T/C (dose: 160.0 mg/kg/injection, schedule: Q04DX002 (ip), vehicle: saline with Tween-80): 112 % of control | T/C [4]: 98 % of control | T/C (dose: 400.0 mg/kg/injection, schedule: Q04DX002 (ip), vehicle: saline with Tween-80): 104 % of control | T/C [5]: 93 % of control

CC(=O)Oc1ccc(N(CCCl)CCCl)cc1OC(C)=O
T/C (dose: 150.0 mg/kg/injection, schedule: Q01DX001 (ip), vehicle: other): 98 % of control

O=C(CCCC(=O)N/N=C/c1cccc(Br)c1)N/N=C\c1cccc(Br)c1
T/C [1]: 90 % of control | T/C [2]: 88 % of control

O=C(COCC(=O)N/N=C/c1ccc(Cl)c(Cl)c1)N/N=C/c1ccc(Cl)c(Cl)c1
T/C (dose: 6.25 mg/kg/injection, schedule: Q01DX009 (ip), vehicle: saline with Tween-80): 92 % of control | T/C (dose: 12.5 mg/kg/injection, schedule: Q01DX009 (ip), vehicle: saline with Tween-80): 90 % of control | T/C (dose: 25.0 mg/kg/injection, schedule: Q01DX009 (ip), vehicle: saline with Tween-80): 89 % of control | T/C [4]: 86 % of control

C/C(=C\Cl)CO
T/C [3]: 97 % of control | T/C [4]: 95 % of control

CC(N)Cc1ccc(O)cc1 (stereo not given)
T/C [6]: 108 % of control | T/C [7]: 100 % of control | T/C [8]: 103 % of control | T/C [9]: 94 % of control | T/C [10]: 101 % of control | T/C [11]: 96 % of control | T/C (dose: 200.0 mg/kg/injection, schedule: Q01DX009 (ip), vehicle: saline): 93 % of control | T/C [12]: 100 % of control | T/C [13]: 94 % of control

CCC/C=C(/CC(=O)O)C(=O)O
T/C [11]: 95 % of control | T/C [12]: 100 % of control | T/C [13]: 97 % of control

Cc1cc(C)nc(NS(=O)(=O)c2ccc(NC(=O)Nc3ccc(F)cc3F)cc2)n1
T/C (dose: 50.0 mg/kg/injection, schedule: Q01DX009 (ip), vehicle: saline with Tween-80): 96 % of control | T/C [14]: 93 % of control | T/C [15]: 101 % of control

O=C(CNC(=O)Nc1ccc(C2=NCCN2)cc1)Nc1ccc(C2=NCCN2)cc1
T/C (dose: 4.5 mg/kg/injection, schedule: Q01DX Z (ip), vehicle: carboxymethylcellulose (CMC)): 117 % of control | T/C (dose: 9.0 mg/kg/injection, schedule: Q01DX Z (ip), vehicle: carboxymethylcellulose (CMC)): 159 % of control | T/C (dose: 18.0 mg/kg/injection, schedule: Q01DX Z (ip), vehicle: carboxymethylcellulose (CMC)): 247 % of control | T/C (dose: 36.0 mg/kg/injection, schedule: Q01DX Z (ip), vehicle: carboxymethylcellulose (CMC)): 192 % of control | T/C (dose: 50.0 mg/kg/injection, schedule: Q01DX Z (oral), vehicle: water): 98 % of control | T/C (dose: 100.0 mg/kg/injection, schedule: Q01DX Z (oral), vehicle: water): 115 % of control | T/C (dose: 200.0 mg/kg/injection, schedule: Q01DX Z (oral), vehicle: water): 119 % of control | T/C (dose: 400.0 mg/kg/injection, schedule: Q01DX Z (oral), vehicle: water): 150 % of control

O=C(/C=C/c1ccccc1O)c1ccccc1
T/C (dose: 100.0 mg/kg/injection, schedule: Q01DX009 (ip), vehicle: Klucel (hydroxypropylcellulose) (HPC)): 98 % of control | T/C [14]: 110 % of control | T/C (dose: 100.0 mg/kg/injection, schedule: Q04DX003 (ip), vehicle: Klucel (hydroxypropylcellulose) (HPC)): 113 % of control | T/C [3]: 94 % of control | T/C (dose: 200.0 mg/kg/injection, schedule: Q01DX009 (ip), vehicle: Klucel (hydroxypropylcellulose) (HPC)): 100 % of control | T/C [15]: 101 % of control | T/C (dose: 200.0 mg/kg/injection, schedule: Q04DX003 (ip), vehicle: Klucel (hydroxypropylcellulose) (HPC)): 113 % of control | T/C [4]: 102 % of control | T/C (dose: 400.0 mg/kg/injection, schedule: Q01DX009 (ip), vehicle: Klucel (hydroxypropylcellulose) (HPC)): 90 % of control | T/C (dose: 400.0 mg/kg/injection, schedule: Q01DX009 (ip), vehicle: saline with Tween-80): 102 % of control | T/C (dose: 400.0 mg/kg/injection, schedule: Q04DX003 (ip), vehicle: Klucel (hydroxypropylcellulose) (HPC)): 103 % of control | T/C [5]: 96 % of control

CCN(CC)CCOC(=O)N(c1ccccc1)c1ccccc1
T/C (dose: 6.25 mg/kg/injection, schedule: Q01DX009 (ip), vehicle: saline): 103 % of control | T/C (dose: 12.5 mg/kg/injection, schedule: Q01DX009 (ip), vehicle: saline): 106 % of control | T/C [6]: 104 % of control | T/C [7]: 92 % of control | T/C [8]: 95 % of control | T/C [9]: 103 % of control | T/C [10]: 100 % of control | T/C [11]: 103 % of control

CC1C(C)C1(Br)c1ccccc1 (stereo not given)
T/C [16]: 91 % of control | T/C [17]: 101 % of control | T/C [18]: 96 % of control

Nc1cc(C(F)(F)F)ccc1Cl
T/C (dose: 100.0 mg/kg/injection, schedule: Q04DX003 (ip), vehicle: alcohol): 100 % of control | T/C (dose: 200.0 mg/kg/injection, schedule: Q04DX003 (ip), vehicle: alcohol): 96 % of control | T/C (dose: 400.0 mg/kg/injection, schedule: Q04DX003 (ip), vehicle: alcohol): 97 % of control

CC(C)(CO)N=Cc1cc([N+](=O)[O-])ccc1O
T/C [16]: 110 % of control | T/C [17]: 107 % of control | T/C [18]: 110 % of control

Fc1ccc(CSC(=S)Nc2ccc(Cl)c(Cl)c2)cc1
T/C (dose: 75.0 mg/kg/injection, schedule: Q04DX003 (ip), vehicle: saline with Tween-80): 102 % of control | T/C (dose: 150.0 mg/kg/injection, schedule: Q04DX003 (ip), vehicle: saline with Tween-80): 106 % of control
